The source of these data is US11135186B2, “Regulators of the endoplasmic reticulum proteostasis network” (The Scripps Research Institute, priority 2015, dated 2021).

The subject of test [1] is GFP-ATF6 in U2OS-GFP-ATF6 cells. In words: ATF6 nuclear localization, high-content imaging. To be noted: 10 μM, 5 h. The format is cell-based. The procedure:
300 μL of 1.375×10^4 U2OS-GFP-ATF6 cells per ml were plated per well in 96 well imaging plate (ibidi 89626) and sealed with breathable seals (E&K Scientific T896100) two days prior to drug addition. Immediately prior to addition to cells, compounds were diluted to 6× in media from 500×DMSO stock and 60 μL 6× was added to cells for 1× final (0.2% DMSO).
After 5h, media was removed and cells were fixed in 4% PFA (Electron Microscopy Sciences 15714) in PHEM buffer (60 mM PIPES, 25 mM HEPES, 10 mM EGTA, 2 mM MgCl2-hexahydrate, pH 6.9) for 15 minutes at RT. […]
Images were analyzed using CellProfiler^7, MATLAB R2014a and GraphPad Prism 5. […] The ratio of the GFP intensity in the nucleus versus the ER was calculated for each cell and plotted as a histogram per well. A threshold for the minimum ratio of nuclear to ER signal corresponding to an activated (i.e. nuclear localized ATF6) cell was calculated as the minimum nuclear: ER ratio greater than 1 where the number of ER stressed cells (Tg) was greater than the corresponding unstressed control. Percent activation per well was calculated as the percentage of cells per well with a nuclear: ER ratio greater than the calculated threshold for that plate. […]

The test system of the next test is ^FTTTR^A25T. The test is described as follows: [35S] metabolic labeling, secretion of flag-tagged TTR^A25T from HepG2^ATF6 cells. The format is cell-based. To be noted: 15 h pretreatment, 4 h chase; for degradation of ^FTTTR^A25T / reduction of ^FTTTR^A25T secretion: 10 μM. Here is the method:
(§1) HepG2 cells or HEK293T cells plated on poly-D-lysine coated plates were metabolically labeled in DMEM-Cys/-Met (CellGro) supplemented with glutamine, penicillin/streptomycin, dialyzed fetal bovine serum, and EasyTag EXPRESS^35S Protein Labeling Mix (Perkin Elmer) for 30 min. Cells were washed twice with complete media and incubated in prewarmed DMEM for the indicated times. Media or lysates were harvested at the indicated times. Lysates were prepared in RIPA buffer with fresh protease inhibitor cocktail (Roche). FLAG tagged TTR variants or ALLC were immunopurified using M1 anti-FLAG agarose beads (Sigma-Aldrich) and washed three times with RIPA buffer. The immunoisolates were then eluted by boiling in Laemmli buffer and separated on SDS-PAGE. For total secreted media, 15 uL aliquots from media incubated for 4 hrs on pulsed cells were run on a SDS-PAGE. The gels were then dried, exposed to phosphorimager plates (GE Healthcare), and imaged with a Typhoon imager. Band intensities were quantified by densitometry in ImageQuant. Fraction secreted was calculated using the equation: fraction secreted=[extracellular [^35S]-LC signal at t=t/(extracellular [^35S]-LC signal at t=0+intracellular [^35S]-LC signal at t=0)]. Fraction remaining was calculated using the equation: [(extracellular [^35S]-LC signal at t=t+intracellular [^35S]-LC signal at t=t)/(extracellular [^35S]-LC signal at t=0+ intracellular [^35S]-LC signal at t=0)].

Test [2] relates to ALLC (amyloidogenic light chain). The test is described as follows: Light chain ELISA, ALLC from ALMC-2 plasma cells. The following applies: ALMC-2 cells; for EC50: read-out: EC50 of dose dependent reduction in ALLC secretion. In kind it is cell-based, human. Here is the method:
ALMC-2 or KAS-6/1 plasma cells were plated 100,000 cells/well in 150 μL of media in 96-well MultiScreenHTS filtration plates (Millipore MSBVS1210). Triplicate wells were treated with DMSO or compounds at the indicated concentrations and incubated for 16 h. Media was removed by filtration using a QIAvac 96 vacuum manifold (Qiagen) and wells were washed two times with 150 μL media. Wells were then incubated with 150 μL of fresh media for 2 hr and the conditioned media was harvested into a 96-well plate using the vacuum manifold. Free λLC and IgG concentrations were determined by ELISA in 96-well plates (Immulon 4HBX, Thermo Scientific). Wells were coated overnight at 37° C. with rabbit anti-human A light chain polyclonal antibody (Bethyl Laboratories, A90-112A) at a 1:1000 dilution or human IgG-heavy and light chain antibody (Bethyl Laboratories, A80-118A) at a 1:2000 dilution in 50 mM sodium carbonate (pH 9.6). In between all incubation steps, the plates were rinsed extensively with Tris-buffered saline containing 0.05% Tween-20 (TBST). Plates were blocked with 5% non-fat dry milk in TBST for 1 h at 37° C. Media analytes were diluted between 5-200 fold in 5% non-fat dry milk in TBST and 100 μL of each sample was added to individual wells. Light chain or IgG standards ranging from 3-300 ng/mL were prepared from purified human Bence Jones A light chain or human reference serum (Bethyl Laboratories, P80-127 and RS10-110). Plates were incubated at 37° C. for 1.5 h while shaking. Finally, HRP-conjugated goat anti-human A light chain antibody (Bethyl Laboratories, A80-116P) was added at a 1:10,000 dilution or HRP-conjugate IgG-Fc fragment cross-adsorbed antibody (Bethyl Laboratories, A80-304P, 1:30,000 dilution) was added in 5% non-fat dry milk in TBST, followed by a 1.5 h incubation of the plates at 37° C. The detection was carried out with 2,2′-azinobis(3-ethylbenzothiazoline-6-sulfonic acid) (ABTS, 0.18 mg/mL) and 0.03% hydrogen peroxide in 100 mM sodium citrate pH 4.0. Detection solution (100 μL) was added to each well and the plates were incubated at room temperature. The absorbance was recorded at 405 nm and the values for the LC standards were fitted to a 4-parameter logistic function. Light chain or IgG concentrations were averaged from at least 3 independent replicates under each treatment and then normalized to vehicle conditions.
Background: An ELISA detects its analyte on a solid surface through an enzyme-linked reagent.

Test [3] concerns endogenous secretory proteome of HepG2^ATF6 cells. The test is described as follows: [35S] metabolic labeling, total secreted protein from HepG2^ATF6 cells. The format is cell-based. To be noted: 15 h pretreatment, 10 μM compound or 1 μM Tg, 4 h chase. The procedure: as §1

On to `O=[N+]([O-])c1ccc(N/N=C/c2ccccc2O)cc1` [Compound 263], for which the “nuclear fraction of ATF6-GFP (ATF6 nuclear translocation)” value in test [1] was “significantly increased”. In the test with ^FTTTR^A25T, the “degradation of ^FTTTR^A25T” value is on record as “increased degradation” and the “reduction of ^FTTTR^A25T secretion” value worked out at 45%. Moreover, the “ALLC secretion (in words)” value in test [2] (10 μM) is listed as “only minimally affects”. For the same compound, the “accumulation of [35S]-labeled protein in media (total secreted proteome)” value (“accumulation of [35S]-labeled protein” for short) in test [3] is recorded as “did not influence”.
In general, EC50 refers to the concentration giving half of the maximal effect. Turning to `Cc1ccc(O)c(NC(=O)CCc2ccccc2)c1` [Compound 147], in the test on ^FTTTR^A25T, the “degradation of ^FTTTR^A25T” value is recorded as “increased degradation” and the “reduction of ^FTTTR^A25T secretion” value was found to be 45%. The “reduction of ALLC secretion” value in test [2] (10 μM pretreatment, ELISA) came to 60%. Further, the “ALLC intracellular protein levels” value in test [2] (ELISA) is recorded as “unchanged”. For the same compound, in test [2], the EC50 was roughly 1000 nM. The “accumulation of [35S]-labeled protein” value in test [3] is reported as “did not influence”.
Take `Cc1ccc(O)c(N/C=C/C(=O)c2ccc(F)cc2)c1` [Compound 132]: the “nuclear fraction of ATF6-GFP (ATF6 nuclear translocation)” value in test [1] is “significantly increased”. Also, the “^FTTTR^A25T secretion (in words)” value in the test on ^FTTTR^A25T (10 μM compound or 1 μM Tg) was “did not significantly influence”. Also, the “degradation of ^FTTTR^A25T” value in the test on ^FTTTR^A25T was “did not significantly influence”. The half-maximal effective concentration (EC50) in test [2] is roughly 1000 nM. In addition, the “accumulation of [35S]-labeled protein” value in test [3] is “did not influence”.
